Several values for one entry are separate records, joined by “and”; a condition that tells them apart may be missing. Equal values may be shown once. Activity calls are given as the source filed them.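 How the source made its calls: active means IC50 no higher than ten times the top tested dose; inconclusive means flat fit with 30 to 70% inhibition, or poor fit; inactive means IC50 above ten times the top dose.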
Test system: Clostridium difficile clinical isolate growth, OD600, 24 h
Test: growth modulation of Clostridium difficile isolate – OD600, 9-point, retest, dose response (AID 1224920);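 further: inhibitors lower culture turbidity so OD600 falls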

## O=C(NC[C@H]1N[C@H](CO)[C@@H]1c1ccc(C2=CCCC2)cc1)c1ccccc1
  IC50: 69.4 µM

## O=C(C1CCCC1)N1C[C@@H]2N[C@H](C1)C2c1ccc(/C=C/c2ccccc2)cc1 (some centres undefined)
  IC50: 30.1 µM

## COc1ccc(C#Cc2ccc([C@@H]3[C@H](CO)N4CCCCN(C(=O)Nc5ccc(F)cc5)C[C@@H]34)cc2)cc1
  IC50: 6.67 µM

## N#Cc1ccc(-c2ccc([C@@H]3[C@H]4CNC[C@@H]3N4Cc3cc(F)ccc3F)cc2)cc1
  IC50: 58.8 µM

## OC[C@H]1[C@@H](c2ccc(-c3ccc(F)cc3)cc2)[C@@H]2CN(CCC(F)(F)F)CCCCN12
  IC50: 72.8 µM

## O=C(c1ccc(F)cc1)N1CC(=O)N2[C@@H](CO)[C@H](c3ccc(C#CCC4CCCC4)cc3)[C@@H]2C1
  IC50: 15.7 µM

## O=S(=O)(c1ccc(F)cc1)N1C[C@@H]2N[C@H](C1)C2c1ccc(-c2ccc(F)cc2)cc1 (some centres undefined)
  IC50: 128 µM

## C/C=C/c1ccc(C2[C@@H]3CN(Cc4cccc(F)c4)C[C@H]2N3)cc1 (some centres undefined)
  IC50: 14.3 µM and 27.3 µM

## Cc1ccc(-c2ccc([C@@H]3[C@H](CO)N4CCCCN(C(=O)c5ccc(F)cc5)C[C@@H]34)cc2)cc1
  IC50: 24.3 µM

## COc1cc(CN2[C@@H]3CNC[C@H]2C3c2ccc(-c3ccc(C#N)cc3)cc2)cc(OC)c1 (some centres undefined)
  IC50: 48.1 µM

## O=C(Nc1ccc(Cl)cc1)N1[C@@H]2CNC[C@H]1C2c1ccc(-c2ccccc2)cc1 (some centres undefined)
  IC50: 60.4 µM

## COc1ccccc1CN1CC[C@@H]2[C@H](CO)Nc3ccc(C#Cc4ccccc4)cc3[C@@H]21
  IC50: 31.2 µM

## COc1ccccc1S(=O)(=O)N1C[C@@H]2N[C@H](C1)C2c1ccc(-c2cccc(C)c2)cc1 (some centres undefined)
  IC50: 53.5 µM

## Cc1ccccc1-c1ccc([C@H]2[C@@H](CO)N3CCCCN(C(=O)Nc4cccc(F)c4)C[C@H]23)cc1
  IC50: 10.6 µM

## Cc1cccc(-c2ccc(C3[C@@H]4CN(Cc5cccc(F)c5)C[C@H]3N4)cc2)c1 (some centres undefined)
  IC50: 5.89 µM and 8.61 µM

## Fc1cccc(CN2C[C@@H]3N[C@H](C2)C3c2ccc(/C=C/c3ccccc3)cc2)c1 (some centres undefined)
  IC50: 1.8 µM and 4.45 µM

## COc1ccc(C#Cc2ccc([C@@H]3[C@H](CO)N4CCCCN(C(=O)Nc5cccc(F)c5)C[C@@H]34)cc2)cc1
  IC50: 7.68 µM

## O=C(Nc1ccc(F)cc1)N1CCCCN2[C@H](CO)[C@H](c3ccc(-c4ccccc4F)cc3)[C@H]2C1
  IC50: 55.9 µM

## CCCC#Cc1ccc([C@H]2[C@H](CO)N3CCCCN(S(=O)(=O)c4ccccc4C)C[C@@H]23)cc1
  IC50: > 240 µM (inactive)

## Fc1cccc(-c2ccc([C@@H]3[C@@H]4CN(Cc5nccs5)C[C@H]3N4)cc2)c1
  IC50: 66.3 µM

## O=C(c1cnccn1)N1CC(=O)N2[C@H](C1)[C@@H](c1ccc(C#CCc3ccccc3)cc1)[C@@H]2CO
  IC50: > 240 µM (inactive)

## COc1ccc(-c2ccc(C3[C@@H]4CN(C(=O)Nc5cccc(F)c5)C[C@H]3N4)cc2)cc1 (some centres undefined)
  IC50: 26 µM

## COc1ccc(-c2ccc(C3[C@H]4CNC[C@@H]3N4C(=O)Nc3ccc(C(F)(F)F)cc3)cc2)cc1 (some centres undefined)
  IC50: 65.7 µM and 10.6 µM

## OC[C@H]1Nc2ccc(-c3ccc(F)cc3)cc2[C@H]2[C@@H]1CCN2Cc1ccc(F)cc1
  IC50: 44.3 µM

## COc1ccccc1C#Cc1ccc2c(c1)[C@@H]1[C@@H](CCN1C(=O)c1ccncc1)[C@@H](CO)N2
  IC50: > 120 µM (inactive)

## CCCNC(=O)C[C@@H]1CC[C@H]2[C@@H](COC[C@@H](O)CN2C(=O)Nc2ccc(Cl)c(Cl)c2)O1
  IC50: 8.45 µM

## O=S(=O)(Cc1ccccc1)N1CCCCN2[C@@H](CO)[C@@H](c3ccc(-c4ccc(F)cc4)cc3)[C@@H]2C1
  IC50: 38 µM

## OC[C@@H]1Nc2ccc(-c3ccc(F)cc3)cc2[C@H]2[C@@H]1CCN2Cc1ccc(F)cc1
  IC50: 90.2 µM

## O=C(C1CCC1)N1C[C@@H]2N[C@H](C1)C2c1ccc(/C=C/c2ccccc2)cc1 (some centres undefined)
  IC50: 74.4 µM

## O=C(c1ccc(F)cc1)N1C[C@@H]2N[C@H](C1)C2c1ccc(/C=C/c2ccccc2)cc1 (some centres undefined)
  IC50: 13 µM

## COc1ccc(C#Cc2ccc([C@@H]3[C@@H](CO)N4CCCCN(C(=O)Nc5ccc(F)cc5)C[C@H]34)cc2)cc1
  IC50: 20.6 µM

## OC[C@@H]1[C@H](c2ccc(/C=C/c3ccccc3)cc2)[C@H]2CN(CCC(F)(F)F)CCCCN12
  IC50: 28.7 µM

## O=C(NC1CCCCC1)N1C[C@@H]2N[C@H](C1)C2c1ccc(-c2cccc(F)c2)cc1 (some centres undefined)
  IC50: 61.2 µM

## C/C=C/c1ccc(C2[C@@H]3CN(C(=O)Nc4ccc(C(F)(F)F)cc4)C[C@H]2N3)cc1 (some centres undefined)
  IC50: 13.7 µM and 10.6 µM

## COc1ccc(-c2ccc(C3[C@H]4CNC[C@@H]3N4Cc3ccc4c(c3)OCO4)cc2)cc1 (some centres undefined)
  IC50: 53.1 µM

## COc1cccc(-c2ccc(C3[C@@H]4CN(S(=O)(=O)c5ccccc5C)C[C@H]3N4)cc2)c1 (some centres undefined)
  IC50: 29.1 µM

## O=C(Nc1cccc(F)c1)N1CCCCN2[C@H](CO)[C@H](c3ccc(-c4ccccc4F)cc3)[C@H]2C1
  IC50: 24.5 µM

## O=C(C[C@@H]1CC[C@@H]2[C@H](COC[C@@H](O)CN2C(=O)Nc2ccc(Cl)c(Cl)c2)O1)NC1CCC1
  IC50: 5.89 µM

## Cc1ccccc1-c1ccc(C2[C@@H]3CN(Cc4ccc5c(c4)OCO5)C[C@H]2N3)cc1 (some centres undefined)
  IC50: 5.63 µM and 15.6 µM

## C[C@@H]1CN([C@@H](C)CO)C(=O)c2ccccc2-c2ccccc2CO[C@H]1CN(C)Cc1ccccc1C(F)(F)F
  IC50: > 270 µM (inactive)

## Cc1ccc(S(=O)(=O)N2C[C@@H]3N[C@H](C2)C3c2ccc(/C=C/c3ccccc3)cc2)cc1 (some centres undefined)
  IC50: 4.98 µM

## O=S(=O)(Cc1ccccc1)N1C[C@@H]2N[C@H](C1)C2c1ccc(-c2ccccc2)cc1 (some centres undefined)
  IC50: 59.7 µM

## COc1ccc(C#Cc2ccc([C@@H]3[C@H]4CN(Cc5ccccc5F)CCCCN4[C@H]3CO)cc2)cc1
  IC50: 13.7 µM

## CCCNC(=O)C[C@H]1CC[C@@H]2[C@H](COC[C@@H](O)CN2C(=O)Nc2ccc(Cl)c(Cl)c2)O1
  IC50: 20.9 µM

## COc1ccc(C#Cc2ccc([C@H]3[C@H](CO)N4CCCCN(C(=O)Nc5ccc(F)cc5)C[C@@H]34)cc2)cc1
  IC50: 5.67 µM

## OC[C@H]1[C@@H](c2ccc(C#CC3CCCC3)cc2)[C@@H]2CN(CCC(F)(F)F)CCCCN12
  IC50: 48.2 µM

## O=C(NC[C@H]1N[C@H](CO)[C@@H]1c1ccc(C2=CCCCC2)cc1)c1cccc(F)c1
  IC50: 58.8 µM

## N#Cc1cccc(-c2ccc(C3[C@@H]4CN(C(=O)Nc5ccc(C(F)(F)F)cc5)C[C@H]3N4)cc2)c1 (some centres undefined)
  IC50: 11.8 µM and 7.72 µM

## COc1ccc(C#Cc2ccc([C@H]3[C@H](CO)N4CCCCN(Cc5ccccc5F)C[C@@H]34)cc2)cc1
  IC50: 11 µM

## OC[C@@H]1[C@H](c2ccc(C3=CCCCC3)cc2)[C@@H]2CN(CCC(F)(F)F)CCCCN12
  IC50: 34.9 µM

## CCCC#Cc1ccc([C@@H]2[C@H](CO)N3CCCCN(S(=O)(=O)c4ccccc4C)C[C@@H]23)cc1
  IC50: 24 µM

## COc1ccccc1C#Cc1ccc2c(c1)[C@H]1[C@H](CCN1C(=O)c1ccc(F)cc1)[C@@H](CO)N2
  IC50: < 0.5 µM

## COc1ccc(-c2ccc(C3[C@@H]4CN(Cc5cc(OC)cc(OC)c5)C[C@H]3N4)cc2)cc1 (some centres undefined)
  IC50: 6.55 µM and 25.8 µM

## Cc1ccc(-c2ccc(C3[C@H]4CNC[C@@H]3N4S(=O)(=O)c3cccc(C)c3)cc2)cc1 (some centres undefined)
  IC50: 30.3 µM

## COc1cc(CN2[C@@H]3CNC[C@H]2C3c2ccc(-c3ccccc3)cc2)cc(OC)c1 (some centres undefined)
  IC50: 14.8 µM

## O=C(Nc1ccccc1F)N1CCCCN2[C@H](CO)[C@@H](c3ccc(/C=C/c4ccccc4)cc3)[C@H]2C1
  IC50: 21.7 µM

## COc1ccccc1NC(=O)N1CCCCN2[C@H](CO)[C@H](c3ccc(-c4ccc(C)cc4)cc3)[C@H]2C1
  IC50: 14.5 µM

## O=C(C[C@@H]1CC[C@@H]2[C@H](COC[C@H](O)CN2C(=O)Nc2ccc(Cl)c(Cl)c2)O1)NC1CCC1
  IC50: 20.3 µM

## CC(C)CC#Cc1ccc([C@@H]2[C@H](CO)N3CCCCN(C(=O)Nc4ccccc4)C[C@@H]23)cc1
  IC50: 13.1 µM

## N#Cc1cccc(-c2ccc(C3[C@@H]4CN(Cc5ccccc5)C[C@H]3N4)cc2)c1 (some centres undefined)
  IC50: 79.6 µM

## O=S(=O)(c1ccc(F)cc1)N1C[C@@H]2N[C@H](C1)C2c1ccc(/C=C/c2ccccc2)cc1 (some centres undefined)
  IC50: 8.8 µM

## Cc1ccc(-c2ccc([C@H]3[C@@H](CO)N4CCCCN(C(=O)Nc5cccc(F)c5)C[C@H]34)cc2)cc1
  IC50: 4.44 µM

## O=C(Nc1cccc(F)c1)N1C[C@@H]2N[C@H](C1)C2c1ccc(-c2ccc(F)cc2)cc1 (some centres undefined)
  IC50: 51.8 µM

## CCNC(=O)C[C@H]1CC[C@@H]2[C@H](COC[C@H](O)CN2C(=O)Nc2ccc(C(F)(F)F)cc2)O1
  IC50: 9.45 µM

## COc1cccc(CN2C[C@@H]3N[C@H](C2)C3c2ccc(-c3ccccc3C)cc2)c1 (some centres undefined)
  IC50: 5.48 µM and 13.3 µM

## N#C[C@@H]1[C@@H](c2ccc(C#Cc3cccnc3)cc2)[C@@H](CO)N1C(=O)NC1CCCC1
  IC50: > 240 µM (inactive)

## Fc1ccc(F)c(CN2[C@@H]3CNC[C@H]2C3c2ccc(-c3ccccc3)cc2)c1 (some centres undefined)
  IC50: 44.8 µM

## Cc1cccc(-c2ccc([C@@H]3[C@H]4CN(CCC(F)(F)F)CCCCN4[C@H]3CO)cc2)c1
  IC50: 66.4 µM

## Cc1ccccc1-c1ccc(C2[C@H]3CNC[C@@H]2N3C(=O)Nc2ccc(C(F)(F)F)cc2)cc1 (some centres undefined)
  IC50: 17.4 µM

## COc1ccc(C#Cc2ccc([C@@H]3[C@@H](CO)N4CCCCN(Cc5ccccc5F)C[C@H]34)cc2)cc1
  IC50: 7.31 µM

## Fc1ccccc1-c1ccc(C2[C@@H]3CN(Cc4ccccc4)C[C@H]2N3)cc1 (some centres undefined)
  IC50: 4.68 µM and 7.81 µM

## O=S(=O)(Cc1ccccc1)N1CCCCN2[C@H](CO)[C@H](c3ccc(-c4ccc(F)cc4)cc3)[C@H]2C1
  IC50: 42.5 µM

## O=C(Nc1ccc(C(F)(F)F)cc1)N1[C@@H]2CNC[C@H]1C2c1ccc(-c2ccc(F)cc2)cc1 (some centres undefined)
  IC50: 13.9 µM

## Cc1ccccc1-c1ccc(C2[C@H]3CNC[C@@H]2N3C(=O)Nc2ccc(Cl)cc2)cc1 (some centres undefined)
  IC50: 16.9 µM and 34.3 µM

## O=S(=O)(c1ccccc1)N1C[C@@H]2N[C@H](C1)C2c1ccc(-c2ccc(F)cc2)cc1 (some centres undefined)
  IC50: 51.4 µM

## O=C(C[C@H]1CC[C@H]2[C@@H](COC[C@H](O)CN2C(=O)Nc2ccc(Cl)c(Cl)c2)O1)NC1CCC1
  IC50: 3.65 µM

## O=C(C1CC1)N1C[C@@H]2N[C@H](C1)C2c1ccc(/C=C/c2ccccc2)cc1 (some centres undefined)
  IC50: 70.3 µM

## COc1cccc(-c2ccc(C3[C@@H]4CN(S(=O)(=O)c5cccc(OC)c5)C[C@H]3N4)cc2)c1 (some centres undefined)
  IC50: 24.4 µM

## O=C(NC[C@@H]1N[C@@H](CO)[C@H]1c1ccc(C2=CCCCC2)cc1)c1ccc(F)cc1
  IC50: 57.8 µM

## COc1cccc(-c2ccc(C3[C@@H]4CN(Cc5ccccn5)C[C@H]3N4)cc2)c1 (some centres undefined)
  IC50: 91.5 µM

## O=C(C[C@H]1CC[C@@H]2[C@H](COC[C@H](O)CN2C(=O)Nc2ccc(C(F)(F)F)cc2)O1)NCC1CCCCC1
  IC50: 6.15 µM

## COc1ccc(NC(=O)N2CCCCN3[C@H](CO)[C@H](c4ccc(C#Cc5ccccc5)cc4)[C@H]3C2)cc1
  IC50: 27.5 µM

## Cc1ccc(-c2ccc(C3[C@@H]4CN(C(=O)Nc5ccc(C(F)(F)F)cc5)C[C@H]3N4)cc2)cc1 (some centres undefined)
  IC50: 4.49 µM and 2.49 µM

## OC[C@@H]1Nc2ccc(C#Cc3cccc(F)c3)cc2[C@@H]2NCC[C@H]12
  IC50: 42.8 µM

Source: PubChem BioAssay AID1224920 (Broad Institute, 2016)
